For experiment [1], the system named is NCI-H358 cells (K-Ras G12C). Description: Potency assay: pERK in NCI-H358 cells. The format is cell-based, human. The conditions noted are these: Homo sapiens, NCI-H358; H358 KRAS G12C; read-out: pERK EC50. In a few lines:
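Inhibition of cellular pERK after a 4 h treatment, detected by AlphaLISA or In-Cell Western. IC50 from a four-parameter concentration-response fit.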

The test system of another experiment is NCI-H358 (K-Ras G12C). As to the kind of experiment: CellTiter-Glo cell viability assay, NCI-H358. Type of experiment: cell-based, human. To be noted: Homo sapiens, NCI-H358, 120 h, NCI-H358, 5-day treatment; class symbols; read-out: Additional H358 Cell Viability assay data (K-Ras G12C, IC50). The method, boiled down: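 Steps: compound dispensed into wells holding cells; incubation to day 5; ~30 min room-temperature equilibration; luminescence read; sample signal divided by mean DMSO signal, times 100; four-parameter logistic curve fit.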

The target in a further experiment is KRAS G12D (Homo sapiens (Human), UniProt P01116+P62937, G12D). As to the kind of experiment: Ras-Raf (BRAF RBD) disruption / FRET / MOA assay, KRAS G12D. Type of experiment: biochemical. The conditions noted are these: Ras-Raf disruption/FRET/MOA assay; class symbols; read-out: KRAS G12D FRET data IC50. In a few lines: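 TR-FRET read-out: a drop in ratio relative to DMSO wells marks disruption of the Ras:RAF complex, reported as IC50. Compounds (3-fold series, 10 points, top 30 μM final) incubated 3 h at 25° C before Eu-anti-His 10 nM and APC-anti-GST 50 nM, 1.5 h more.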
Chain of KRAS G12D (P01116-2 other isoform, or with tags, fused parts or gaps G12D): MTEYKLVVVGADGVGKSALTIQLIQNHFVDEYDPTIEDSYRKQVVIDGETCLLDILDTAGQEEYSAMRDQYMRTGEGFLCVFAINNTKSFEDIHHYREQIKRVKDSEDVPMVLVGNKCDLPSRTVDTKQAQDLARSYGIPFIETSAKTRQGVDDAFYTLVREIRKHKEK
Chain of KRAS G12D (P62937 whole entry): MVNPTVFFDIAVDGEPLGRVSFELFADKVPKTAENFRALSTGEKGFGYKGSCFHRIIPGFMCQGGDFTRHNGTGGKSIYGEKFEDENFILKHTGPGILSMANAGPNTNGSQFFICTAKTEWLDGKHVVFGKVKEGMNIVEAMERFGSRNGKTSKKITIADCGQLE

Another experiment concerns the target KRAS Q61H (Homo sapiens (Human), UniProt P01116+P62937, Q61H). Description: Ras-Raf (BRAF RBD) disruption / FRET / MOA assay, KRAS Q61H. The conditions noted are these: Ras-Raf disruption/FRET/MOA assay; class symbols; read-out: KRAS Q61H FRET data IC50. The format is biochemical. In a few lines:
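Compounds were tested as a 10-point 3-fold dilution series from 30 μM final for their ability to drive ternary complex formation between nucleotide-loaded Ras and cyclophilin A, displacing the BRAF RBD. After 3 h at 25° C., anti-His Eu-W1024 (10 nM) and anti-GST allophycocyanin (50 nM) were added for 1.5 h. A TR-FRET ratio decrease versus DMSO gave IC50.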

Each structure is given as a SMILES string.

In US11566007B2, “Ras inhibitors” (Revolution Medicines, Inc., priority 2019, dated 2023) one finds EC50 and IC50 data, which are given here for 6 molecules.

Chain of KRAS Q61H (P01116-2 other isoform, or with tags, fused parts or gaps Q61H): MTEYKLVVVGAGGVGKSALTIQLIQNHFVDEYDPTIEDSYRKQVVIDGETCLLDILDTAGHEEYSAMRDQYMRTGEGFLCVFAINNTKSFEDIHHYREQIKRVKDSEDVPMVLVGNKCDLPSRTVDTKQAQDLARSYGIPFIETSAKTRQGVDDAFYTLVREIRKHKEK
Chain of KRAS Q61H (P62937 whole entry): as the sequence (P62937 whole entry) above

`C=CC(=O)N1CC[C@H](C(=O)N(C)[C@H](C(=O)N[C@H]2Cc3cc(O)cc(c3)-c3ccc4c(c3)c(c(-c3cn(C)cn3)n4CC)CC(C)(C)COC(=O)[C@@H]3CCCN(N3)C2=O)C(C)C)C1` [Example A113]: the EC50 in experiment [1] was less than 5 µM. Moreover, the values for the half-inhibitory concentration (IC50) with NCI-H358 (K-Ras G12C), at KRAS G12D and at KRAS Q61H were 0.1 to 1 µM, greater than 10 µM and 1 to 10 µM, respectively.

In the case of `C=CS(=O)(=O)N1CC[C@H](C(=O)N(C)[C@H](C(=O)N[C@H]2Cc3cc(O)cc(c3)-c3ccc4c(c3)c(c(-c3cncnc3)n4CC)CC(C)(C)COC(=O)[C@@H]3CCCN(N3)C2=O)C(C)C)C1` [Example A172], the EC50 in experiment [1] is less than 5 µM. The IC50 in the experiment with NCI-H358 (K-Ras G12C) was 0.01 to 0.1 µM; on KRAS G12D it was greater than 10 µM; at KRAS Q61H, 0.1 to 1 µM.

With `CCn1c(-c2cccnc2[C@H](C)OC)c2c3cc(ccc31)-c1cccc(c1)C[C@H](NC(=O)[C@H](C(C)C)N1CC[C@@]3(CCN(C(=O)C#C[C@@H]4COCCN4C4COC4)C3)C1=O)C(=O)N1CCC[C@H](N1)C(=O)OCC(C)(C)C2` [Example A566], the EC50 in experiment [1] was less than 5 µM. The IC50 in the experiment with NCI-H358 (K-Ras G12C) was less than 0.01 µM; at KRAS G12D it was 1 to 10 µM; at KRAS Q61H, 0.1 to 1 µM.

`C=CC(=O)N1CCC2(C1)CN(C(=O)N(C)[C@H](C(=O)N[C@H]1Cc3nc(cs3)-c3ccc4c(c3)c(c(-c3cccnc3[C@H](C)OC)n4CC(F)(F)F)CC(C)(C)COC(=O)[C@@H]3CCCN(N3)C1=O)C(C)C)C2` [Example A603]: the half-maximal effective concentration (EC50) in experiment [1] is less than 5 µM. Moreover, the IC50 was 0.01 to 0.1 µM with NCI-H358 (K-Ras G12C), 0.1 to 1 µM at KRAS G12D and 0.01 to 0.1 µM on KRAS Q61H.

Take `CCn1c(-c2cccnc2[C@H](C)OC)c2c3cc(ccc31)-c1cccc(c1)C[C@H](NC(=O)[C@H](C(C)C)N(C)C(=O)N1CCC13CN(C(=O)C#CC(C)(C)N(C)C)C3)C(=O)N1CCC[C@H](N1)C(=O)OCC(C)(C)C2` [Example A672]: the EC50 in experiment [1] is less than 5 µM. The IC50 was in the range of 0.01 to 0.1 µM in the experiment on NCI-H358 (K-Ras G12C), 1 to 10 µM on KRAS G12D and 0.01 to 0.1 µM at KRAS Q61H.

On to `C=CC(=O)N(C)[C@H]1CC1N(C)C(=O)N(C)[C@H](C(=O)N[C@H]1Cc2nc(cs2)-c2ccc3c(c2)c(c(-c2cccnc2[C@H](C)OC)n3CC)CC(C)(C)COC(=O)[C@@H]2CCCN(N2)C1=O)C(C)C` (stereo partly drawn) [Example A738], for which the EC50 in experiment [1] is less than 5 µM. Moreover, the IC50 with NCI-H358 (K-Ras G12C) was less than 0.01 µM; on KRAS G12D it was 1 to 10 µM; on KRAS Q61H, 0.1 to 1 µM.
